The results in this text go back to ChEMBL document CHEMBL1150791, “blaVIM-2-harboring integrons isolated in India, Russia, and the United States arise from an ancestral class 1 integron predating the formation of the 3' conserved sequence” (2007).

For this test, the system named is Pseudomonas aeruginosa. The test is described as follows: Antibacterial activity against blaVIM2-harboring integrons containing Pseudomonas aeruginosa 42 isolate from ventilator-associated pneumonia patient. It counts as functional.
Compound `NCC[C@H](O)C(=O)N[C@@H]1C[C@H](N)[C@@H](O[C@H]2O[C@H](CN)[C@@H](O)[C@H](O)[C@H]2O)[C@H](O)[C@H]1O[C@H]1O[C@H](CO)[C@@H](O)[C@H](N)[C@H]1O` [AMIKACIN] had an Activity of 8 µg/mL. With `C[C@@H](O)[C@H]1C(=O)N2C(C(=O)O)=C(SCCNC=N)C[C@H]12` [IMIPENEM ANHYDROUS], the Activity is greater than 32 µg/mL. The result for `CCN1CCN(C(=O)N[C@@H](C(=O)N[C@@H]2C(=O)N3[C@@H]2SC(C)(C)[C@@H]3C(=O)O)c2ccccc2)C(=O)C1=O` [PIPERACILLIN] reads greater than 256 µg/mL; that for `CO/N=C(\C(=O)N[C@@H]1C(=O)N2C(C(=O)[O-])=C(C[N+]3(C)CCCC3)CS[C@H]12)c1csc(N)n1` [CEFEPIME], greater than 256 µg/mL; that for `C[C@H]1[C@H](NC(=O)/C(=N\OC(C)(C)C(=O)O)c2csc(N)n2)C(=O)N1S(=O)(=O)O` [AZTREONAM], greater than 256 µg/mL. As for `O=C(O)c1cn(C2CC2)c2cc(N3CCNCC3)c(F)cc2c1=O` [CIPROFLOXACIN], the Activity was greater than 32 µg/mL. The result for `C[C@@H](O)[C@H]1C(=O)N2C(C(=O)O)=C(S[C@@H]3CN[C@H](C(=O)N(C)C)C3)[C@H](C)[C@H]12` [MEROPENEM] reads greater than 32 µg/mL; that for COLISTIN, 1 µg/mL; that for `CC(C)(O/N=C(\C(=O)N[C@@H]1C(=O)N2C(C(=O)[O-])=C(C[n+]3ccccc3)CS[C@H]12)c1csc(N)n1)C(=O)O` [CEFTAZIDIME], 96 µg/mL.
